Among the test systems are SK-MEL-28; Hs-578T; UO-31; SW-620; HL-60; EKVX; SK-OV-3; NCI-H522; 786-0; MDA-MB-435; KM12; A549; A498; M14; SF-539; SNB-75; TK-10; HOP-92; RXF 393.
Assay in all cases: NCI-60 cell line screen, 48 h

Each structure is given as a SMILES string.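 Values below derive from 48-hour exposures of cells grown in 96-well plates, with endpoints linearly interpolated between the two concentrations bracketing the appropriate inhibition level. GI50 marks 50% less growth.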 Active and inactive are the calls of the source. Rule as the data show it: active = GI50 up to about 1.1 µM and inactive = higher. Some results are limits rather than exact numbers.

Regarding `N#C/C(N)=C(C#N)/N=C/Nc1ccc(N)cc1`, the GI50 is > 100 µM (inactive) in the test with SK-MEL-28; 95.3 µM (inactive) in the test on Hs-578T; > 100 µM (inactive) in the test with UO-31; > 100 µM (inactive) in the test with SW-620; 30.3 µM (inactive) in the test with HL-60; > 100 µM (inactive) in the test on EKVX. In addition, the GI50 in the test with SK-OV-3, with NCI-H522, with 786-0, in the test on MDA-MB-435, with KM12 and in the test with A549 was > 100 µM (inactive) throughout. The GI50 in the test on A498, in the test with M14, with SF-539, with SNB-75 and with TK-10 was > 100 µM (inactive) throughout.

Take `NCc1ccc(C(=O)O)cc1` [AMINOMETHYLBENZOIC ACID]: the GI50 in the test on SK-MEL-28, in the test on UO-31, with SW-620, with HL-60, in the test with EKVX and in the test on NCI-H522 was > 100 µM (inactive) in each case. Besides, the GI50 in the test with 786-0, in the test on MDA-MB-435, with KM12, with A549, with A498 and with M14 was > 100 µM (inactive) in each case. For the same molecule, the GI50 with HOP-92, in the test with RXF 393 and in the test on TK-10 was > 100 µM (inactive) each time.

As for `CN(C(=O)Cc1ccccc1)n1cn[n+](CC(=O)OC(C)(C)C)c1`, the GI50 with SK-MEL-28, in the test with Hs-578T, in the test on UO-31, in the test with SW-620, with EKVX and with SK-OV-3 was > 10 µM (inactive) each time. Also, the GI50 in the test on NCI-H522, with 786-0, with MDA-MB-435, in the test with KM12, in the test with A549 and with A498 was > 10 µM (inactive) each time. The GI50 in the test on M14, with HOP-92, with SF-539 and with TK-10 was > 10 µM (inactive) each time.

With `O=c1/c(=C\c2ccccc2)sc2n1C(c1ccccc1)C1(O)CCCCC1N=2` (stereo not given), the GI50 with SK-MEL-28 was > 100 µM (inactive); in the test on UO-31, 44.2 µM (inactive); in the test with SW-620 it was > 100 µM (inactive); with HL-60 it was 36 µM (inactive); in the test with NCI-H522, > 100 µM (inactive); with 786-0 it was > 100 µM (inactive). For the same molecule, the GI50 with MDA-MB-435 was > 100 µM (inactive); in the test on A549, 78.3 µM (inactive); in the test on A498 it was 36.8 µM (inactive); in the test with M14, > 100 µM (inactive); in the test with SNB-75, > 100 µM (inactive); in the test on TK-10 it was > 100 µM (inactive).

Turning to `Cc1ccc(OCC2OC(n3cnc4c(Br)nc(Br)nc43)CC2Oc2ccc(C)cc2)cc1` (stereo not given), the GI50 was 4.51 µM (inactive) in the test with SK-MEL-28; 14.3 µM (inactive) with UO-31; 2.56 µM (inactive) in the test on SW-620; 1.91 µM (inactive) in the test with HL-60; 2.05 µM (inactive) in the test with EKVX; 14.5 µM (inactive) in the test with SK-OV-3. The GI50 in the test with NCI-H522 is 1.86 µM (inactive); in the test on 786-0, 3.02 µM (inactive); with MDA-MB-435, 5.85 µM (inactive); with KM12, 3.08 µM (inactive); in the test on A549 it was 12.6 µM (inactive); in the test with A498 it was 10.5 µM (inactive). The GI50 is 2.59 µM (inactive) in the test on M14; 2.41 µM (inactive) in the test with HOP-92; 4.94 µM (inactive) in the test on RXF 393; 2.19 µM (inactive) with SF-539; 3.09 µM (inactive) in the test with SNB-75; 21.8 µM (inactive) with TK-10.

With `COc1ccc(P2(=S)OC(C)(C)C(C)(C)O2)cc1`, the GI50 in the test with SK-MEL-28 is > 100 µM (inactive); in the test on Hs-578T, > 100 µM (inactive); in the test on UO-31 it was 17.5 µM (inactive); in the test on SW-620, > 100 µM (inactive); in the test with HL-60 it was > 100 µM (inactive); with EKVX, > 100 µM (inactive). The GI50 in the test on NCI-H522, in the test on 786-0, in the test with MDA-MB-435, with KM12, in the test on A549 and in the test on M14 was > 100 µM (inactive) in each case. In addition, the GI50 in the test on HOP-92, with SF-539, in the test on SNB-75 and in the test on TK-10 was > 100 µM (inactive) each time.

For `N#CCc1nc(-c2ccccc2)n[nH]1`, the GI50 was 77.4 µM (inactive) in the test on Hs-578T; > 100 µM (inactive) in the test with UO-31; > 100 µM (inactive) in the test with SW-620; > 100 µM (inactive) with HL-60; 83.6 µM (inactive) in the test on EKVX; > 100 µM (inactive) in the test with SK-OV-3. Moreover, the GI50 in the test on NCI-H522, in the test on 786-0, in the test on MDA-MB-435, in the test on KM12, in the test with A549 and with M14 was > 100 µM (inactive) each time. The GI50 with RXF 393, with SF-539, with SNB-75 and in the test on TK-10 was > 100 µM (inactive) throughout.

For `CN1C2CCC1C(C(O)c1ccccc1[N+](=O)[O-])C(=O)C2` (stereo not given), the GI50 with SK-MEL-28 is > 100 µM (inactive); with Hs-578T it was 53.2 µM (inactive); with UO-31, 47.1 µM (inactive); in the test with SW-620, 45.2 µM (inactive); in the test with HL-60, 31.8 µM (inactive); in the test on EKVX it was > 100 µM (inactive). Further, the GI50 with SK-OV-3 is > 100 µM (inactive); in the test with NCI-H522, 40.3 µM (inactive); in the test on 786-0, 44 µM (inactive); in the test with MDA-MB-435 it was 23.6 µM (inactive); in the test with KM12 it was 36.5 µM (inactive); in the test with A549, > 100 µM (inactive). Besides, the GI50 is > 100 µM (inactive) in the test with A498, 35.2 µM (inactive) in the test with M14, 29.8 µM (inactive) in the test with SF-539 and > 100 µM (inactive) with TK-10.

On to `COC1(OC)CC(CO)(COc2cc(Cl)nc(N)n2)C1`, for which the GI50 with SK-MEL-28, in the test on Hs-578T, with UO-31, with SW-620, with EKVX and with SK-OV-3 was > 100 µM (inactive) in each case. Also, the GI50 with NCI-H522, with 786-0, in the test on MDA-MB-435, with KM12, in the test with A549 and in the test with HOP-92 was > 100 µM (inactive) in each case. Also, the GI50 with RXF 393, in the test with SF-539, in the test on SNB-75 and in the test on TK-10 was > 100 µM (inactive) in each case.

`CC1C(c2cc(C(C)(C)C)c(O)c(C(C)(C)C)c2)c2cc3c(cc2OC1N1CCOCC1)OCO3` (stereo not given): the GI50 in the test with SK-MEL-28 is 15.6 µM (inactive); in the test with Hs-578T, 3.13 µM (inactive); with UO-31 it was 12.4 µM (inactive); with SW-620, 42.2 µM (inactive); with EKVX, 23.9 µM (inactive); with NCI-H522, 21.2 µM (inactive). The GI50 with 786-0 is 13.7 µM (inactive); in the test on MDA-MB-435 it was 24 µM (inactive); in the test on KM12, 43.9 µM (inactive); in the test on A549, 16.6 µM (inactive); in the test on M14 it was 17.5 µM (inactive); in the test with SF-539 it was 12.9 µM (inactive). For the same molecule, the GI50 with SNB-75 was 4.34 µM (inactive); in the test on TK-10, 15.5 µM (inactive).

For the molecule `CC(=O)OCCn1cnc2nc(Nc3ccccc3)nc(Cl)c21`, the GI50 is > 100 µM (inactive) with SK-MEL-28; > 100 µM (inactive) with Hs-578T; > 100 µM (inactive) with SW-620; 47.8 µM (inactive) with HL-60; > 100 µM (inactive) in the test with EKVX; > 100 µM (inactive) in the test with SK-OV-3. Besides, the GI50 was 84.9 µM (inactive) in the test with NCI-H522; > 100 µM (inactive) with 786-0; 25.1 µM (inactive) in the test with MDA-MB-435; 29.2 µM (inactive) with KM12; > 100 µM (inactive) with A549; > 100 µM (inactive) in the test on A498. Besides, the GI50 is 13.6 µM (inactive) with HOP-92, > 100 µM (inactive) in the test with SF-539 and > 100 µM (inactive) in the test on TK-10.

As for `C/C(=N\NC(=S)Nc1ccccc1)c1nc2cccnc2[nH]1`, the GI50 was 0.706 µM (active) with SK-MEL-28; 14 µM (inactive) in the test with Hs-578T; 1.38 µM (inactive) with UO-31; 4.97 µM (inactive) in the test on SW-620; 2.92 µM (inactive) with HL-60; 0.649 µM (active) in the test on EKVX. Moreover, the GI50 in the test with SK-OV-3 was 5.36 µM (inactive); with NCI-H522, 2.18 µM (inactive); with 786-0, 2.54 µM (inactive); in the test with MDA-MB-435, 3.7 µM (inactive); in the test with KM12, 7.08 µM (inactive); in the test on A549, 3.31 µM (inactive). The GI50 in the test on A498 was 8.17 µM (inactive); in the test with M14, 3.58 µM (inactive); in the test with HOP-92, 12.9 µM (inactive); in the test with SF-539, 1.46 µM (inactive); in the test with SNB-75, 12.2 µM (inactive).

With `CC(C)(C)OC(=O)NCCNC(=O)OCc1ccccc1`, the GI50 with SK-MEL-28, with Hs-578T, in the test on UO-31, with SW-620, with EKVX and in the test on SK-OV-3 was > 100 µM (inactive) each time. Besides, the GI50 with NCI-H522, in the test on 786-0, with MDA-MB-435, in the test with KM12, in the test with A549 and with M14 was > 100 µM (inactive) throughout. For the same molecule, the GI50 with HOP-92, with RXF 393, with SF-539, in the test on SNB-75 and in the test on TK-10 was > 100 µM (inactive) each time.

The values are drawn from ChEMBL document CHEMBL1201862, “PubChem BioAssay data set” (2004).
